{
  "source": "paper PMC6629894",
  "about": "“Ruthenium Complexes Containing Heterocyclic Thioamidates Trigger Caspase-Mediated Apoptosis Through MAPK Signaling in Human Hepatocellular Carcinoma Cells” (Frontiers in Oncology, 2019)",
  "key": {"B16-F10 (mouse melanoma)": {"system": "B16-F10 (mouse melanoma)", "assay": "Alamar blue cytotoxicity assay, 72 h", "assay_type": "cell-based", "from_the_text": "(§1) The cell lines HepG2 (human hepatocellular carcinoma), HL-60 (human promyelocytic leukemia), K-562 (human chronic myelogenous leukemia), B16-F10 (mouse melanoma), MCF-7 (human breast carcinoma), HCT116 (human colon carcinoma), HSC-3 (human oral squamous cell carcinoma), SCC-4 (human oral squamous cell carcinoma), MRC-5 (human lung fibroblast), WT SV40 MEF (wild-type immortalized mouse embryonic fibroblast), and BAD KO SV40 MEF (BAD gene knockout immortalized mouse embryonic fibroblasts) were obtained from the American Type Culture Collection (ATCC, Manassas, VA, USA). Cells were cultured in RPMI 1640 medium (Gibco-BRL, Gaithersburg, MD, USA) with 10% fetal bovine serum (Life, Carlsbad, CA, USA), 2 mM L-glutamine (Vetec Química Fina, Duque de Caxias, RJ, Brazil) and 50 μg/mL gentamycin (Life). For all experiments, adherent cells were collected by treatment with 0.25% trypsin-EDTA solution (Gibco-BRL). All cell lines were cultured in flasks at 37°C in 5% CO2 and were subcultured every 3–4 days to maintain exponential growth. All cell lines were tested for mycoplasma using a mycoplasma staining kit (Sigma-Aldrich Co.) to validate that the cells that were used were free from contamination.\n(§2) Cytotoxicity was measured colorimetrically using an Alamar blue method that was performed as previously described ([20], [21]). Cells were seeded in 96-well plates for all experiments (7 × 10^4 cells/mL for adherent cells or 3 × 10^5 cells/mL for suspension cells in 100 μL of medium) and incubated overnight at 37°C with 5% CO2 to allow for adherence. The complexes were dissolved in 0.5% dimethyl sulfoxide (DMSO, Vetec Química Fina) at eight different concentrations from 0.19 to 25 μg/mL and were added to each well and incubated for 72 h. The negative control was treated with the vehicle (0.5% DMSO) that was used to solubilize and dilute the complexes. […] Four (for cell lines) or 24 h (for PBMCs) before the end of incubation, 20 μL of a stock solution (0.312 mg/mL) of resazurin (Sigma-Aldrich Co.) was added to each well. Absorbance was measured at 570 and 600 nm using a SpectraMax 190 Microplate Reader (Molecular Devices, Sunnyvale, CA, USA)."}, "[1]": {"system": "K-562 (human chronic myelogenous leukemia)", "assay": "Alamar blue cytotoxicity assay, 72 h", "assay_type": "cell-based", "from_the_text": "as §1, §2"}, "[2]": {"system": "multicellular spheroids formed from HepG2 cells", "assay": "3D multicellular spheroid culture, Alamar blue, 72 h", "assay_type": "cell-based, human", "settings": "read-out: IC50 and 95% CI, 3D HepG2 spheroids", "experimental": "HepG2 cells were cultivated as 3D multicellular spheroids in a 96-well plate with a cell-repellent surface. Briefly, 100 μL of a suspension of cells (5 × 10^5 cells/mL) was seeded into a 96-well plate with a cell-repellent surface (Greiner Bio-One, Kremsmünster, Austria) and cultured in RPMI 1640 medium with 10% fetal bovine serum, 2 mM glutamine plus 3% Matrigel (BD Biosciences, San Jose, CA, EUA) and 50 μg/mL gentamycin at 37°C with 5% CO2. Spheroids with stable structures formed after 3 days. Then, the complexes were dissolved in 0.5% DMSO at eight different concentrations from 0.19 to 25 μg/mL, were added to each well and incubated for 72 h. […] At the end of the experiment, morphological changes were examined by light microscopy (Olympus BX41, Tokyo, Japan) using Image-Pro software (Media Cybernetics, Inc. Silver Spring, USA), and cytotoxicity was quantified with the Alamar blue method as described above."}, "[3]": {"system": "WT SV40 MEF (wild-type immortalized mouse embryonic fibroblast)", "assay": "Alamar blue cytotoxicity assay, 72 h", "assay_type": "cell-based", "settings": "read-out: IC50 and 95% CI"}, "[4]": {"system": "BAD KO SV40 MEF (BAD gene knockout immortalized mouse embryonic fibroblasts)", "assay": "Alamar blue cytotoxicity assay, 72 h", "assay_type": "cell-based", "settings": "read-out: IC50 and 95% CI"}, "HepG2 cells": {"system": "HepG2 cells", "assay": "Trypan blue exclusion assay", "assay_type": "cell-based, human", "experimental": "For all subsequent in vitro experiments, 2 mL of a suspension of HepG2 cells were seeded (7 × 10^4 cells/mL) and incubated in a 24-well plate overnight to allow the cells to adhere to the plate surface.\nIn the trypan blue exclusion assay, the number of viable cells and non-viable cells (stained with trypan blue) were counted. Briefly, 90 μL was removed from the cell suspension, and 10 μL of trypan blue (0.4%) was added. Cell counting was performed using a light microscope with a hemocytometer filled with an aliquot of the homogenized cell suspension."}, "calf thymus DNA (ctDNA)": {"system": "calf thymus DNA (ctDNA)", "assay": "DNA interaction assay (ethidium bromide displacement)", "assay_type": "binding", "experimental": "DNA interaction was measured in a cell-free system as previously described ([22]). In this assay, the ability of the complexes to translocate ethidium bromide, a DNA intercalator, from calf thymus DNA (ctDNA, Sigma-Aldrich Co.) was examined. […] […] After a 15 min incubation at room temperature, fluorescence was measured using the excitation and emission wavelengths of 320 and 600 nm, respectively, using a Spectramax Microplate Reader (Molecular Devices)."}, "[5]": {"system": "HepG2 cells engrafted in C.B-17 SCID mice", "assay": "Human hepatocellular carcinoma xenograft model", "assay_type": "in vivo", "settings": "for mean tumor mass: 21 days (negative control 0.6 ± 0.1 g)", "experimental": "A total of 64 C.B-17 severe-combined immunodeficiency (SCID) mice (females, 25–30 g) were obtained and maintained at the animal facilities from Gonçalo Moniz Institute-FIOCRUZ (Salvador, Bahia, Brazil). Animals were housed in cages with free access to food and water. All animals were kept under a 12:12-h light-dark cycle (lights on at 6:00 a.m.). The animals were treated according to the ethical principles for animal experimentation of SBCAL (Brazilian Association of Laboratory Animal Science), Brazil. The Animal Ethics Committee of Gonçalo Moniz Institute–FIOCRUZ (Salvador, Bahia, Brazil) approved the experimental protocol (number 06/2015). Animal welfare was monitored throughout the study, and the pain and suffering were minimized."}, "[6]": {"settings": "for Final body weight / Survival / Differential leukocytes: Eosinophils / Differential leukocytes: Lymphocytes / Differential leukocytes: Monocytes / Differential leukocytes: Neutrophils / Erythrocytes / Total leukocytes: 21 days; for Differential leukocytes: Eosinophils / Differential leukocytes: Lymphocytes / Differential leukocytes: Monocytes / Differential leukocytes: Neutrophils / Erythrocytes / Total leukocytes: peripheral blood", "method": "A human hepatocellular carcinoma xenograft model was generated by subcutaneously implanting HepG2 cells (1 × 10^7 cells per 500 μL) into the left front armpit of C.B-17 SCID mice. […] The treatments were initiated one day after the cancer cell injection. The animals were treated intraperitoneally (200 μL per animal) once a day for 21 consecutive days. On the 22nd day, the animals were anesthetized, and peripheral blood samples were collected from the brachial artery. Animals were euthanized by an anesthetic overdose, and tumors were excised and weighed.\nTo evaluate the toxicological aspects, mice were weighed at the beginning and at the end of the experiment. […] Hematological analysis was performed using an Advia 60 hematology system (Bayer, Leverkusen, Germany)."}},
  "note": "pIC50: −log10 of the molar value. Like-named read-outs stand apart in the source and are kept apart here.",
  "data": [
    {"smiles": "Cn1ccnc1[S-].F[P-](F)(F)(F)(F)F.[Ru+2].c1ccc(-c2ccccn2)nc1.c1ccc(P(CCCCP(c2ccccc2)c2ccccc2)c2ccccc2)cc1", "note": "[Complex 1, [Ru(mmi)(bipy)(dppb)]PF6]", "values": [
      {"measurement": "Selectivity index (SI = IC50 [noncancerous cells]/IC50 [cancer cells])", "setting": "B16-F10 (mouse melanoma); MRC-5 vs B16-F10", "value": 1.3},
      {"measurement": "Selectivity index (SI = IC50 [noncancerous cells]/IC50 [cancer cells])", "setting": "B16-F10 (mouse melanoma); PBMCs vs B16-F10", "value": 1.5},
      {"measurement": "Selectivity index (SI = IC50 [noncancerous cells]/IC50 [cancer cells])", "setting": "[1]; PBMCs vs K-562", "value": 1.9},
      {"measurement": "pIC50", "setting": "[1]; read-out: IC50 and 95% CI, K-562, 72 h", "value": 5.85},
      {"measurement": "pIC50", "setting": "[2]", "value": 5.19},
      {"measurement": "pIC50", "setting": "[3]", "value": 5.96},
      {"measurement": "pIC50", "setting": "[4]", "value": 6.15},
      {"measurement": "reduction of the number of viable cells vs negative control", "setting": "HepG2 cells; 5 μM, 24 h", "value": 40.1, "unit": "%"},
      {"measurement": "reduction of the number of viable cells vs negative control", "setting": "HepG2 cells; 5 μM, 48 h", "value": 80.9, "unit": "%"},
      {"measurement": "reduction of the number of viable cells vs negative control", "setting": "HepG2 cells; 10 μM, 24 h", "value": 78.9, "unit": "%"},
      {"measurement": "reduction of the number of viable cells vs negative control", "setting": "HepG2 cells; 10 μM, 48 h", "value": 93.9, "unit": "%"},
      {"measurement": "reduction of the fluorescence intensity (ethidium bromide-ctDNA) vs negative control", "setting": "calf thymus DNA (ctDNA); 5 μM", "value": 41.6, "unit": "%"},
      {"measurement": "reduction of the fluorescence intensity (ethidium bromide-ctDNA) vs negative control", "setting": "calf thymus DNA (ctDNA); 10 μM", "value": 34.0, "unit": "%"},
      {"measurement": "reduction of the fluorescence intensity (ethidium bromide-ctDNA) vs negative control", "setting": "calf thymus DNA (ctDNA); 20 μM", "value": 30.4, "unit": "%"},
      {"measurement": "mean tumor mass", "setting": "[5]; 0.5 mg/kg/day i.p.", "value": "0.4 ± 0.1", "unit": "g"},
      {"measurement": "mean tumor mass", "setting": "[5]; 1 mg/kg/day i.p.", "value": "0.3 ± 0.1", "unit": "g"},
      {"measurement": "tumor mass inhibition rates", "setting": "[5]; 0.5 and 1 mg/kg/day i.p., 21 days", "value": "31.5–45.4%"},
      {"measurement": "Initial body weight", "setting": "[6]; 0.5 mg/kg/day", "value": "21.7 ± 0.2", "unit": "g"},
      {"measurement": "Final body weight", "setting": "[6]; 0.5 mg/kg/day i.p.", "value": "20.4 ± 0.3", "unit": "g"},
      {"measurement": "Survival", "setting": "[6]; 0.5 mg/kg/day i.p.", "value": "10/10"},
      {"measurement": "Initial body weight", "setting": "[6]; 1 mg/kg/day", "value": "20.3 ± 0.2", "unit": "g"},
      {"measurement": "Final body weight", "setting": "[6]; 1 mg/kg/day i.p.", "value": "20.9 ± 0.4", "unit": "g"},
      {"measurement": "Survival", "setting": "[6]; 1 mg/kg/day i.p.", "value": "10/10"},
      {"measurement": "Differential leukocytes: Eosinophils", "setting": "[6]; 0.5 mg/kg/day", "value": 0.7, "unit": "%"},
      {"measurement": "Differential leukocytes: Lymphocytes", "setting": "[6]; 0.5 mg/kg/day", "value": 36.4, "unit": "%"},
      {"measurement": "Differential leukocytes: Monocytes", "setting": "[6]; 0.5 mg/kg/day", "value": 39.9, "unit": "%"},
      {"measurement": "Differential leukocytes: Neutrophils", "setting": "[6]; 0.5 mg/kg/day", "value": 23.8, "unit": "%"},
      {"measurement": "Erythrocytes", "setting": "[6]; 0.5 mg/kg/day", "value": "10.5 ± 0.6 10^6cells/μL"},
      {"measurement": "Total leukocytes", "setting": "[6]; 0.5 mg/kg/day", "value": "2.3 ± 0.4 10^3cells/μL"},
      {"measurement": "Differential leukocytes: Eosinophils", "setting": "[6]; 1 mg/kg/day", "value": 1.4, "unit": "%"},
      {"measurement": "Differential leukocytes: Lymphocytes", "setting": "[6]; 1 mg/kg/day", "value": 55.5, "unit": "%"},
      {"measurement": "Differential leukocytes: Monocytes", "setting": "[6]; 1 mg/kg/day", "value": 20.1, "unit": "%"},
      {"measurement": "Differential leukocytes: Neutrophils", "setting": "[6]; 1 mg/kg/day", "value": 24.4, "unit": "%"},
      {"measurement": "Erythrocytes", "setting": "[6]; 1 mg/kg/day", "value": "6.7 ± 0.9 10^6cells/μL"},
      {"measurement": "Total leukocytes", "setting": "[6]; 1 mg/kg/day", "value": "3.9 ± 1.9 10^3cells/μL"}
    ]}
  ]
}
